Measurements: patent publication US20200345725A1, “Methods and Compositions for Treating Cancer” (Omeros Corporation, priority 2019, published 2020)
Marks after values point to notes of the source that are not given here.

Legend:
ADBR2 = target: T1, ADBR2 (Homo sapiens, UniProt P07550); assay: CRE-Luc reporter assay with control receptor ADBR2; format: cell-based
T1 construct: host or cells: HEK293 or CHO cell lines (ATCC)

human PBMCs = assay: Th1 cytokines in supernatants of stimulated human PBMC, GPR174 inhibitor with adenosine pathway inhibitors (Examples 15, 18-22); format: cell-based; conditions: for IFN-γ fold increase (FIG. 44): Example 15; for IFN-γ, ratio relative to vehicle control (Veh column) / IL-2, ratio relative to vehicle control (Veh column) / TNF, ratio relative to vehicle control (Veh column): Cmpd 10 1, ZM 0.1, PBF 0.1, SCH 0.2 μM, ADA 0.75 μg/mL; for IFN-γ, ratio relative to vehicle control (MRS) / IL-2, ratio relative to vehicle control (MRS column) / TNF, ratio relative to vehicle control (MRS column): MRS-1754 1 μM added to the agent(s) of the label, label MRS = MRS alone
In short: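 Human donor PBMCs (1×10^6 cells/well) were stimulated with 1 µg/mL anti-CD3 (UCHT1) plus 0.1 µg/mL anti-CD28 (CD28.2) for 24 h with test agents. IFN-γ, IL-2, TNF and GM-CSF in supernatants were measured by ELISA, Legendplex or MSD. Fold changes were compared by one-way ANOVA with Tukey correction.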

[1] = 12 donors, Cmpd 10 1-2 μM, ZM 0.2-1 μM
[2] = 12 donors, Cmpd 10 1-2 μM, ZM 0.2-1 μM, 24 h
[3] = donor 1, 24 h, Cmp 10 2 μM alone
[4] = donor 1, 24 h, Cmp 10 2 μM alone, listed as Cmp 10
[5] = donor 1, SCH-58261 0.2 μM, alone (label SCH) or with Cmp 10 2 μM (label Cmp 10)
[6] = donor 1, SCH-58261 0.6 μM, alone (label SCH) or with Cmp 10 2 μM (label Cmp 10)
[7] = donor 1, SCH-58261 2 μM, alone (label SCH) or with Cmp 10 2 μM (label Cmp 10)
[8] = donor 2, Cmpd 10 1 μM alone, listed as Cmpd 10
[9] = donor 2, PBF-509 0.1 μM, alone (label PBF) or with Cmpd 10 1 μM (label Cmpd 10)
[10] = donor 2, PBF-509 0.1 μM, alone (label PBF) or with Cmpd 10 1 μM (label Cmpd 10), listed as Cmpd 10
[11] = donor 2, ZM-241385 0.2 μM, alone (label ZM) or with Cmpd 10 1 μM (label Cmpd 10)
[12] = donor 2, ZM-241385 0.2 μM, alone (label ZM) or with Cmpd 10 1 μM (label Cmpd 10), listed as Cmpd 10
[13] = donor 3, no MRS, listed as Cmpd 10
[14] = donor 3, PBF-509 0.2 μM, alone (label PBF) or with Cmpd 10 1 μM (label Cmpd 10)
[15] = donor 3, PBF-509 0.2 μM, alone (label PBF) or with Cmpd 10 1 μM (label Cmpd 10), listed as Cmpd 10
[16] = donor 3, ZM-241385 0.2 μM, alone (label ZM) or with Cmpd 10 1 μM (label Cmpd 10)
[17] = donor 3, ZM-241385 0.2 μM, alone (label ZM) or with Cmpd 10 1 μM (label Cmpd 10), listed as Cmpd 10
[18] = donor 6, no MRS, listed as Cmpd 10
[19] = donor 7, high and low concentrations, ZM 0.1 μM
[20] = donor 7, no ZM, 0.3 μM (compound 20: 3 μM)
[21] = donor 7, no ZM, 1 μM (compound 20: 10 μM)
[22] = donor 7, with ZM-241385 0.1 μM, 0.3 μM (compound 20: 3 μM)
[23] = donor 7, with ZM-241385 0.1 μM, 1 μM (compound 20: 10 μM), label ZM = ZM alone

T1 sequence (P07550 whole entry): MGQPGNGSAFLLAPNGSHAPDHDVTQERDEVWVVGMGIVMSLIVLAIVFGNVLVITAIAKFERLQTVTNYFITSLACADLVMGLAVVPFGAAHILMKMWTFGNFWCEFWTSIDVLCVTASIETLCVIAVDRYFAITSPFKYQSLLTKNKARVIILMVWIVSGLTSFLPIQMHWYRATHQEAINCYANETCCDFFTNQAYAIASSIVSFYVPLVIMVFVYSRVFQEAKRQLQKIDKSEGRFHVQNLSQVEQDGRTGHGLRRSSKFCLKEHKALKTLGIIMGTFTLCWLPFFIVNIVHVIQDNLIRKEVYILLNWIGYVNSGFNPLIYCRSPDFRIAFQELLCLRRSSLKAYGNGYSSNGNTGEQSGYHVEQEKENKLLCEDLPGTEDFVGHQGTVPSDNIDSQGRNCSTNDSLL

CC1CCN(c2cc(N3CCN(S(=O)(=O)c4ccccc4)CC3)c([N+](=O)[O-])cc2F)CC1 [compound 10]
Gs pathway in the presence of ADBR2 (CRE-Luc reporter) (ADBR2): did not inhibit
GM-CSF fold-change (FC) vs ZM alone (human PBMCs; 9 donors, Cmpd 10 1-2 μM, ZM 0.2-1 μM): 1.1 fold
GM-CSF mean fold-change (FC) vs vehicle (human PBMCs; 9 donors, Cmpd 10 1-2 μM, ZM 0.2-1 μM, 24 h): 1.4 fold
IFN-γ fold-change (FC) vs ZM alone (human PBMCs; [1]): 1.3 fold
IL-2 fold-change (FC) vs ZM alone (human PBMCs; [1]): 1.2 fold
TNF fold-change (FC) vs ZM alone (human PBMCs; [1]): 1.3 fold
IFN-γ mean fold-change (FC) vs vehicle (human PBMCs; [2]): 2.8 fold
IL-2 mean fold-change (FC) vs vehicle (human PBMCs; [2]): 1.7 fold
TNF mean fold-change (FC) vs vehicle (human PBMCs; [2]): 2.7 fold
IFN-γ fold increase (FIG. 44) (human PBMCs; 24 h, ZM241385 1 μM, alone (label ZM241385) or with compound 10 3 μM (label compound 10)): 9.3 fold
IFN-γ fold increase (FIG. 44) (human PBMCs; 24 h, ZM241385 10 μM, alone (label ZM241385) or with compound 10 3 μM (label compound 10)): 17.1 fold
IFN-γ fold increase (FIG. 44) (human PBMCs; 24 h, compound 10 3 μM alone): 2.3 fold
IFN-γ fold-change relative to vehicle control (human PBMCs; [3]): 4.9 fold
IL-2 fold-change relative to vehicle control (human PBMCs; [3]): no effect
TNF fold-change relative to vehicle control (human PBMCs; [3]): 4.2 fold
IFN-γ fold-change relative to vehicle control (human PBMCs; [4]): 4.9* fold
IL-2 fold-change relative to vehicle control (human PBMCs; [4]): 0.9 fold
TNF fold-change relative to vehicle control (human PBMCs; [4]): 4.2* fold
IFN-γ fold-change relative to vehicle control (human PBMCs; [5]): 11.8* fold
IL-2 fold-change relative to vehicle control (human PBMCs; [5]): 1.5* fold
TNF fold-change relative to vehicle control (human PBMCs; [5]): 14.2* fold
IFN-γ fold-change relative to vehicle control (human PBMCs; [6]): 11.3* fold
IL-2 fold-change relative to vehicle control (human PBMCs; [6]): 1.4* fold
TNF fold-change relative to vehicle control (human PBMCs; [6]): 15.9* fold
IFN-γ fold-change relative to vehicle control (human PBMCs; [7]): 11.0* fold
IL-2 fold-change relative to vehicle control (human PBMCs; [7]): 1.4* fold
TNF fold-change relative to vehicle control (human PBMCs; [7]): 14.7* fold
IFN-γ fold-change relative to vehicle control (human PBMCs; donor 2, Cmpd 10 1 μM alone): 1.6 fold
IL-2 fold-change relative to vehicle control (human PBMCs; donor 2, Cmpd 10 1 μM alone): 1.1 fold
TNF fold-change relative to vehicle control (human PBMCs; donor 2, Cmpd 10 1 μM alone): 1.5 fold
IFN-γ fold-change relative to vehicle control (human PBMCs; [8]): 1.6* fold
TNF fold-change relative to vehicle control (human PBMCs; [8]): 1.5* fold
IFN-γ fold-change relative to vehicle control (human PBMCs; [9]): 3.5 fold
IL-2 fold-change relative to vehicle control (human PBMCs; [9]): 2.0 fold
TNF fold-change relative to vehicle control (human PBMCs; [9]): 2.3 fold
IFN-γ fold-change relative to vehicle control (human PBMCs; [10]): 3.5* fold
IL-2 fold-change relative to vehicle control (human PBMCs; [10]): 2.0* fold
TNF fold-change relative to vehicle control (human PBMCs; [10]): 2.3* fold
IFN-γ fold-change relative to vehicle control (human PBMCs; [11]): 8.8 fold
IL-2 fold-change relative to vehicle control (human PBMCs; [11]): 2.6 fold
TNF fold-change relative to vehicle control (human PBMCs; [11]): 4.0 fold
IFN-γ fold-change relative to vehicle control (human PBMCs; [12]): 8.8* fold
IL-2 fold-change relative to vehicle control (human PBMCs; [12]): 2.6* fold
TNF fold-change relative to vehicle control (human PBMCs; [12]): 4.0* fold
IFN-γ, MRS/Veh: ratio in the presence vs. the absence of MRS-1754 (human PBMCs; donor 3): 0.8*
IL-2, MRS/Veh: ratio in the presence vs. the absence of MRS-1754 (human PBMCs; donor 3): 1.5*
TNF, MRS/Veh: ratio in the presence vs. the absence of MRS-1754 (human PBMCs; donor 3): 1.1
IFN-γ, ratio relative to vehicle control (Veh column) (human PBMCs; donor 3, no MRS): 2.8 fold
IL-2, ratio relative to vehicle control (Veh column) (human PBMCs; donor 3, no MRS): 2.9 fold
TNF, ratio relative to vehicle control (Veh column) (human PBMCs; donor 3, no MRS): 4.1 fold
IFN-γ, ratio relative to vehicle control (Veh column) (human PBMCs; [13]): 2.8* fold
IL-2, ratio relative to vehicle control (Veh column) (human PBMCs; [13]): 2.9* fold
TNF, ratio relative to vehicle control (Veh column) (human PBMCs; [13]): 4.1* fold
IFN-γ fold-change relative to vehicle control (human PBMCs; donor 3, Cmpd 10 1 μM alone): 1.2 fold
IL-2 fold-change relative to vehicle control (human PBMCs; donor 3, Cmpd 10 1 μM alone): 1.1 fold
TNF fold-change relative to vehicle control (human PBMCs; donor 3, Cmpd 10 1 μM alone): 1.5 fold
TNF fold-change relative to vehicle control (human PBMCs; donor 3, Cmpd 10 1 μM alone, listed as Cmpd 10): 1.5* fold
IFN-γ, ratio relative to vehicle control (MRS) (human PBMCs; donor 3): 2.2* fold
IL-2, ratio relative to vehicle control (MRS column) (human PBMCs; donor 3): 4.3 fold
TNF, ratio relative to vehicle control (MRS column) (human PBMCs; donor 3): 4.6* fold
IL-2, ratio relative to vehicle control (MRS column) (human PBMCs; donor 3, listed as Cmpd 10): 4.3* fold
IFN-γ fold-change relative to vehicle control (human PBMCs; [14]): 1.8 fold
IL-2 fold-change relative to vehicle control (human PBMCs; [14]): 1.6 fold
TNF fold-change relative to vehicle control (human PBMCs; [14]): 2.9 fold
IFN-γ fold-change relative to vehicle control (human PBMCs; [15]): 1.8* fold
IL-2 fold-change relative to vehicle control (human PBMCs; [15]): 1.6* fold
TNF fold-change relative to vehicle control (human PBMCs; [15]): 2.9* fold
IFN-γ fold-change relative to vehicle control (human PBMCs; [16]): 2.5 fold
IL-2 fold-change relative to vehicle control (human PBMCs; [16]): 2.3 fold
TNF fold-change relative to vehicle control (human PBMCs; [16]): 4.6 fold
IFN-γ fold-change relative to vehicle control (human PBMCs; [17]): 2.5* fold
IL-2 fold-change relative to vehicle control (human PBMCs; [17]): 2.3* fold
TNF fold-change relative to vehicle control (human PBMCs; [17]): 4.6* fold
IFN-γ, MRS/Veh: ratio in the presence vs. the absence of MRS-1754 (human PBMCs; donor 6): 1.1
IL-2, MRS/Veh: ratio in the presence vs. the absence of MRS-1754 (human PBMCs; donor 6): 1.4*
TNF, MRS/Veh: ratio in the presence vs. the absence of MRS-1754 (human PBMCs; donor 6): 1.4*
IFN-γ, ratio relative to vehicle control (Veh column) (human PBMCs; donor 6, no MRS): did not significantly increase
IL-2, ratio relative to vehicle control (Veh column) (human PBMCs; donor 6, no MRS): 1.7 fold
TNF, ratio relative to vehicle control (Veh column) (human PBMCs; donor 6, no MRS): 1.4 fold
IFN-γ, ratio relative to vehicle control (Veh column) (human PBMCs; [18]): 1.2 fold
IL-2, ratio relative to vehicle control (Veh column) (human PBMCs; [18]): 1.7* fold
TNF, ratio relative to vehicle control (Veh column) (human PBMCs; [18]): 1.4* fold
IFN-γ, ratio relative to vehicle control (MRS) (human PBMCs; donor 6): 1.3* fold
IL-2, ratio relative to vehicle control (MRS column) (human PBMCs; donor 6): 1.4 fold
TNF, ratio relative to vehicle control (MRS column) (human PBMCs; donor 6): 2.1 fold
IL-2, ratio relative to vehicle control (MRS column) (human PBMCs; donor 6, listed as Cmpd 10): 2.3* fold
TNF, ratio relative to vehicle control (MRS column) (human PBMCs; donor 6, listed as Cmpd 10): 2.1* fold
synergy with ZM on GM-CSF (greater than the sum of the increases with each inhibitor alone) (human PBMCs; [19]): synergized with ZM
synergy with ZM on IFN-γ (greater than the sum of the increases with each inhibitor alone) (human PBMCs; [19]): synergized with ZM
synergy with ZM on IL-2 (greater than the sum of the increases with each inhibitor alone) (human PBMCs; [19]): synergized with ZM
synergy with ZM on TNF (greater than the sum of the increases with each inhibitor alone) (human PBMCs; [19]): synergized with ZM
GM-CSF, ratio relative to vehicle control (human PBMCs; [20]): 3.6*
IFN-γ, ratio relative to vehicle control (human PBMCs; [20]): 2.1*
IL-2, ratio relative to vehicle control (human PBMCs; [20]): 1.7*
TNF, ratio relative to vehicle control (human PBMCs; [20]): 2.2*
GM-CSF, ratio relative to vehicle control (human PBMCs; [21]): 3.1*
IFN-γ, ratio relative to vehicle control (human PBMCs; [21]): 2.2*
IL-2, ratio relative to vehicle control (human PBMCs; [21]): 1.6*
TNF, ratio relative to vehicle control (human PBMCs; [21]): 2.2*
GM-CSF, ratio relative to vehicle control (human PBMCs; [22]): 6.2*
IFN-γ, ratio relative to vehicle control (human PBMCs; [22]): 3.7*
IL-2, ratio relative to vehicle control (human PBMCs; [22]): 2.0*
TNF, ratio relative to vehicle control (human PBMCs; [22]): 3.6*
GM-CSF, ratio relative to vehicle control (human PBMCs; [23]): 5.9*
IFN-γ, ratio relative to vehicle control (human PBMCs; [23]): 3.7*
IL-2, ratio relative to vehicle control (human PBMCs; [23]): 2.2*
TNF, ratio relative to vehicle control (human PBMCs; [23]): 3.8*
